Reference: ChEMBL document CHEMBL5154832, “Design, Synthesis, and Proof-of-Concept of Triple-Site Inhibitors against Aminoacyl-tRNA Synthetases” (J Med Chem, 2022)
≈ marks a conversion by molar mass, not a printed value.

What follows are compounds tested on Staphylococcus aureus (assay: Antibacterial activity against Staphylococcus aureus ATCC 29213 strain assessed as inhibition of bacterial growth incubated for 8 hrs by CLSI protocol based microdilution assay).
Format: functional

Going from `C[C@@H](O)[C@H](N)C(=O)N[C@@H](CNC(=O)CCn1cnc2cc(Br)c(Cl)cc2c1=O)c1cccc(-c2ccc3[nH]ccc3c2)c1` to `C[C@@H](O)[C@H](N)C(=O)N[C@@H](CNC(=O)CCn1cnc2cc(Br)c(Cl)cc2c1=O)c1cccc(-c2ccc3c(c2)CNC3=O)c1`, the MIC rises from 32 µg/mL (≈ 48 µM) to ≥ 128 µg/mL.

`CN[C@H](C(=O)N[C@@H](CNC(=O)CCn1cnc2cc(Cl)c(F)cc2c1=O)c1cccc(-c2ccccc2)c1)[C@@H](C)O` gave an MIC of 32 µg/mL (≈ 55.2 µM).

The compounds below were run on Pseudomonas aeruginosa (assay: Antibacterial activity against Pseudomonas aeruginosa ATCC27853 strain assessed as inhibition of bacterial growth incubated for 8 hrs by CLSI protocol based microdilution assay).
Format: functional

Going from `C[C@@H](O)[C@H](N)C(=O)N[C@@H](CNC(=O)CCn1cnc2cc(Br)c(Cl)cc2c1=O)c1cccc(-c2ccc3[nH]ccc3c2)c1` to `C[C@@H](O)[C@H](N)C(=O)N[C@@H](CNC(=O)CCn1cnc2cc(Br)c(Cl)cc2c1=O)c1cccc(-c2ccc3c(c2)CNC3=O)c1`, the MIC rises from 32 µg/mL (≈ 48 µM) to ≥ 128 µg/mL.

In the case of `CN[C@H](C(=O)N[C@@H](CNC(=O)CCn1cnc2cc(Cl)c(F)cc2c1=O)c1cccc(-c2ccccc2)c1)[C@@H](C)O`, the MIC is reported as 16 µg/mL (≈ 27.6 µM).

The compounds below were run on Salmonella enterica (assay: Antibacterial activity against Salmonella enterica 87 strain assessed as inhibition of bacterial growth incubated for 8 hrs by CLSI protocol based microdilution assay).
Format: functional

`C[C@@H](O)[C@H](N)C(=O)N[C@@H](CNC(=O)CCn1cnc2cc(Br)c(Cl)cc2c1=O)c1cccc(-c2ccc3[nH]ccc3c2)c1` and `C[C@@H](O)[C@H](N)C(=O)N[C@@H](CNC(=O)CCn1cnc2cc(Br)c(Cl)cc2c1=O)c1cccc(-c2ccc3c(c2)CNC3=O)c1` cannot be ordered by MIC: ≥ 128 µg/mL for the first, ≥ 128 µg/mL for the second.

`CN[C@H](C(=O)N[C@@H](CNC(=O)CCn1cnc2cc(Cl)c(F)cc2c1=O)c1cccc(-c2ccccc2)c1)[C@@H](C)O` was tested, and the MIC was ≥ 128 µg/mL.

What follows are compounds tested on Escherichia coli (assay: Antibacterial activity against Escherichia coli acraB strain assessed as inhibition of bacterial growth incubated for 8 hrs by CLSI protocol based microdilution assay).
Format: functional

Going from `C[C@@H](O)[C@H](N)C(=O)N[C@@H](CNC(=O)CCn1cnc2cc(Br)c(Cl)cc2c1=O)c1cccc(-c2ccc3[nH]ccc3c2)c1` to `C[C@@H](O)[C@H](N)C(=O)N[C@@H](CNC(=O)CCn1cnc2cc(Br)c(Cl)cc2c1=O)c1cccc(-c2ccc3c(c2)CNC3=O)c1`, the MIC rises from 16 µg/mL (≈ 24 µM) to ≥ 128 µg/mL.

Compound `CN[C@H](C(=O)N[C@@H](CNC(=O)CCn1cnc2cc(Cl)c(F)cc2c1=O)c1cccc(-c2ccccc2)c1)[C@@H](C)O` has an MIC of 16 µg/mL (≈ 27.6 µM).

The compounds below were run against T1, Threonine--tRNA ligase (Salmonella enterica, UniProt A0A3F3IEK2) (assay: Inhibition of recombinant salmonella enterica threonyl-tRNA synthetase assessed as reduction in enzyme activity incubated for 20 min by Kinase Glo luminescence assay).
T1 sequence (A0A3F3IEK2 whole entry): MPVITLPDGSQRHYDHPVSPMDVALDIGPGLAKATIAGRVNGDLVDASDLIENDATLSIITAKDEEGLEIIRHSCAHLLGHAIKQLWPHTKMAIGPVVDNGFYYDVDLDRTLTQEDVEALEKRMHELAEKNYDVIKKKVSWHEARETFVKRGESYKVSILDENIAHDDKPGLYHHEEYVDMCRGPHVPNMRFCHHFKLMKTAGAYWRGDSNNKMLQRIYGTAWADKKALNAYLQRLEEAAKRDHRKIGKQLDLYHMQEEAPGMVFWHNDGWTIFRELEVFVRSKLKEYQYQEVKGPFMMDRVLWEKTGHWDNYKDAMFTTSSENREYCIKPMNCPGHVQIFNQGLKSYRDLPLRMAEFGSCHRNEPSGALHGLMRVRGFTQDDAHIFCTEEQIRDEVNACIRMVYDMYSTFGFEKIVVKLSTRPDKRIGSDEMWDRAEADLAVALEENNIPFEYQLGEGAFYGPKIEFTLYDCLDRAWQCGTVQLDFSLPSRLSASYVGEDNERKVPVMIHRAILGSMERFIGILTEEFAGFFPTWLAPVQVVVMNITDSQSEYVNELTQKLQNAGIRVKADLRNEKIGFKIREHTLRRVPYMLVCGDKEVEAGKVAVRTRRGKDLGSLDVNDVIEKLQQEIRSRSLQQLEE

First: C[C@@H](O)[C@H](N)C(=O)N[C@@H](CNC(=O)CCn1cnc2cc(Br)c(Cl)cc2c1=O)c1cccc(-c2ccc3[nH]ccc3c2)c1
Second: C[C@@H](O)[C@H](N)C(=O)N[C@@H](CNC(=O)CCn1cnc2cc(Br)c(Cl)cc2c1=O)c1cccc(-c2ccc3c(c2)CNC3=O)c1
The IC50 of the first is 16-fold higher: 1620 nM for the first, 103 nM for the second. The second is the more potent here.

With `CN[C@H](C(=O)N[C@@H](CNC(=O)CCn1cnc2cc(Cl)c(F)cc2c1=O)c1cccc(-c2ccccc2)c1)[C@@H](C)O` the IC50 was 2100 nM.

These compounds were tested against T2, Threonine--tRNA ligase (Salmonella enterica) (UniProt A0A3F3IEK2) (assay: Binding affinity to recombinant salmonella enterica threonyl-tRNA synthetase assessed as change in melting temperature at 0.1 mM by fluorescence-based thermal shift assay).
T2 sequence (whole entry): T1 sequence (A0A3F3IEK2 whole entry)

First: C[C@@H](O)[C@H](N)C(=O)N[C@@H](CNC(=O)CCn1cnc2cc(Br)c(Cl)cc2c1=O)c1cccc(-c2ccc3[nH]ccc3c2)c1
Second: C[C@@H](O)[C@H](N)C(=O)N[C@@H](CNC(=O)CCn1cnc2cc(Br)c(Cl)cc2c1=O)c1cccc(-c2ccc3c(c2)CNC3=O)c1
The ΔTm of the first is lower: 22.6 °C for the first, 32.8 °C for the second.

In the case of `CN[C@H](C(=O)N[C@@H](CNC(=O)CCn1cnc2cc(Cl)c(F)cc2c1=O)c1cccc(-c2ccccc2)c1)[C@@H](C)O`, the ΔTm is reported as 22.1 °C.

These compounds were tested on Staphylococcus aureus (assay: Antibacterial activity against Staphylococcus aureus MRSA R3708 strain assessed as inhibition of bacterial growth incubated for 8 hrs by CLSI protocol based microdilution assay).
Format: functional

First: C[C@@H](O)[C@H](N)C(=O)N[C@@H](CNC(=O)CCn1cnc2cc(Br)c(Cl)cc2c1=O)c1cccc(-c2ccc3[nH]ccc3c2)c1
Second: C[C@@H](O)[C@H](N)C(=O)N[C@@H](CNC(=O)CCn1cnc2cc(Br)c(Cl)cc2c1=O)c1cccc(-c2ccc3c(c2)CNC3=O)c1
The MIC of the first is lower: 32 µg/mL (≈ 48 µM) for the first, ≥ 128 µg/mL for the second.

`CN[C@H](C(=O)N[C@@H](CNC(=O)CCn1cnc2cc(Cl)c(F)cc2c1=O)c1cccc(-c2ccccc2)c1)[C@@H](C)O` showed an MIC of 32 µg/mL (≈ 55.2 µM).

What follows are compounds tested against T2, Threonine--tRNA ligase (Salmonella enterica) (assay: Inhibition of recombinant salmonella enterica threonyl-tRNA synthetase assessed as reduction in enzyme activity at 10 uM incubated for 20 min by Kinase Glo luminescence assay relative to control).

First: C[C@@H](O)[C@H](N)C(=O)N[C@@H](CNC(=O)CCn1cnc2cc(Br)c(Cl)cc2c1=O)c1cccc(-c2ccc3[nH]ccc3c2)c1
Second: C[C@@H](O)[C@H](N)C(=O)N[C@@H](CNC(=O)CCn1cnc2cc(Br)c(Cl)cc2c1=O)c1cccc(-c2ccc3c(c2)CNC3=O)c1
The inhibition of the first is lower: 91% for the first, > 99% for the second.

`CN[C@H](C(=O)N[C@@H](CNC(=O)CCn1cnc2cc(Cl)c(F)cc2c1=O)c1cccc(-c2ccccc2)c1)[C@@H](C)O` showed an inhibition of 73%.

Each compound was assayed on Escherichia coli (assay: Antibacterial activity against Escherichia coli ATCC 25922 strain assessed as inhibition of bacterial growth incubated for 8 hrs by CLSI protocol based microdilution assay).
Format: functional

`C[C@@H](O)[C@H](N)C(=O)N[C@@H](CNC(=O)CCn1cnc2cc(Br)c(Cl)cc2c1=O)c1cccc(-c2ccc3[nH]ccc3c2)c1` and `C[C@@H](O)[C@H](N)C(=O)N[C@@H](CNC(=O)CCn1cnc2cc(Br)c(Cl)cc2c1=O)c1cccc(-c2ccc3c(c2)CNC3=O)c1` cannot be ordered by MIC: ≥ 128 µg/mL for the first, ≥ 128 µg/mL for the second.

With `CN[C@H](C(=O)N[C@@H](CNC(=O)CCn1cnc2cc(Cl)c(F)cc2c1=O)c1cccc(-c2ccccc2)c1)[C@@H](C)O` the MIC was ≥ 128 µg/mL.

The compounds below were run on Enterococcus faecalis (assay: Antibacterial activity against Enterococcus faecalis ATCC 29212 strain assessed as inhibition of bacterial growth incubated for 8 hrs by CLSI protocol based microdilution assay).
Format: functional

Compared with `C[C@@H](O)[C@H](N)C(=O)N[C@@H](CNC(=O)CCn1cnc2cc(Br)c(Cl)cc2c1=O)c1cccc(-c2ccc3[nH]ccc3c2)c1`, `C[C@@H](O)[C@H](N)C(=O)N[C@@H](CNC(=O)CCn1cnc2cc(Br)c(Cl)cc2c1=O)c1cccc(-c2ccc3c(c2)CNC3=O)c1` is higher in MIC: 32 µg/mL (≈ 48 µM) for the first, ≥ 128 µg/mL for the second.

`CN[C@H](C(=O)N[C@@H](CNC(=O)CCn1cnc2cc(Cl)c(F)cc2c1=O)c1cccc(-c2ccccc2)c1)[C@@H](C)O` gave an MIC of 32 µg/mL (≈ 55.2 µM).
